In PMC9261963, “Synthesis and Biological Evaluation of 5-Fluoro-2-Oxindole Derivatives as Potential α-Glucosidase Inhibitors” (Frontiers in Chemistry, 2022):
Where two headings read alike, the source gives them in different places.

Legend:
[1] = target: T1, α-glucosidase from Saccharomyces cerevisiae (EC 3.2.1.20) (Saccharomyces cerevisiae, UniProt P53341); experiment: biochemical; settings: for IC50 / inhibition at 100 µM / Inhibition rate at a concentration of 100 μM (%): p-NPG substrate; for IC50: pH 6.8, 37°C; for inhibition at 100 µM: read-out: Inhibition rate at a concentration of 100 μM (%), 100 μM compound; for Inhibition rate at a concentration of 100 μM (%): 100 μM compound; for Inhibitory activity, folds higher than acarbose: IC50 compared with acarbose
T1 construct: purchased Sigma-Aldrich
Experimental: Then, the inhibitory activity of compounds (3a ∼ 3v) on α-glucosidase from S. cerevisiae was investigated using p-NPG as the substrate. First, the inhibitory activities of compounds (3a ∼ 3v) were screened at a concentration of 100 μM.
The α-glucosidase inhibition of synthetic compounds was performed as previously reported methods with minor modification ([Deng et al., 2022]) which is as follows: briefly, 130 μl of phosphate buffer (10 mM, pH 6.8), 10 μl of α-glucosidase (1 U/ml), and 10 μl of test compound solution were added into the wells of a 96-well plate, followed by incubation for 10 min at 37°C. Then, 50 μl of p-NPG (1 mM) was added, and the plate was further incubated for 30 min at 37°C. Finally, the absorbance of each well was recorded at 405 nm using a microplate reader. […] The inhibition of the test compound on α-glucosidase was calculated as follows: inhibition ratio (%) = [(A− B)/A] × 100, where A is the absorbance of blank and B is the absorbance of the test compound. Each concentration was experimented four times in parallel. Half inhibitory concentration (IC50) was obtained from the fitting curve of inhibition ratio vs. test compound with different concentrations.

[2] = target: T1, α-glucosidase from Saccharomyces cerevisiae (EC 3.2.1.20); experiment: Kinetics mechanism analysis (enzyme activity vs enzyme concentration; Lineweaver–Burk plots); assay type: biochemical; settings: for Inhibition mechanism (inhibition type): Lineweaver–Burk plot analysis; for Ki: inhibition constant from slope vs inhibitor concentration (free enzyme); for K IS: inhibition constant from vertical intercept vs inhibitor concentration (enzyme–substrate complex); for Reversibility of inhibition: plots of enzyme activity vs enzyme concentration
Experimental: In order to obtain the inhibition kinetics type of compounds 3d, 3f, and 3i, the Lineweaver–Burk plot analysis method was carried out with different concentrations of test compounds and substrates.
Compounds 3d, 3f, and 3i with much better α-glucosidase inhibitory activity were selected for kinetic analysis. The experiments were performed to investigate the kinetics mechanism of compounds 3d, 3f, and 3i by the previously reported method ([Xu et al., 2019]). To determine the inhibition mechanism, the final concentrations for 3d were 0, 40, 50, 60 μM, for 3f were 0, 40, 50, 60 μM, and for 3i were 0, 30, 40, 50 μM, the final substrate p-NPG concentration was 0.25 mM, and the final concentrations for α-glucosidase were 3.75 × 10^–2, 5.00 × 10^–2, 6.25 × 10^–2, and 7.50 × 10^–2 U/ml. Then, the inhibition rates were measured by the aforementioned method.
To analyze the inhibition type, the final concentrations for 3d were 0, 40, 50, and 60 μM, for 3f were 0, 40, 50, and 60 μM, and for 3i were 0, 30, 40, and 50 μM, the final α-glucosidase concentration was 5.00 × 10^–2 U/ml, and final concentrations for substrate p-NPG concentration were 0.25, 0.50, 0.75, and 1.00 mM. The inhibition rates were obtained by the aforementioned method. The inhibition type on α-glucosidase was analyzed by using Lineweaver–Burk plots of the inverse of velocities (1/v) vs. the inverse of substrate concentration 1/[S]. The K I and K IS were obtained from the slope and the vertical intercept vs. the inhibitor concentration, respectively.
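Wherever IC50 (μM) is given: Absorbance-based enzyme read-out, with each concentration tested in four parallel replicates.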
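Wherever IC50 is given: Absorbance-based enzyme read-out, with each concentration tested in four parallel replicates.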
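Wherever Inhibition rate at a concentration of 100 μM (%) is given: Absorbance-based enzyme read-out, with each concentration tested in four parallel replicates.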
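Wherever Inhibitory activity, folds higher than acarbose is given: Absorbance-based enzyme read-out, with each concentration tested in four parallel replicates.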

T1 sequence (P53341 whole entry): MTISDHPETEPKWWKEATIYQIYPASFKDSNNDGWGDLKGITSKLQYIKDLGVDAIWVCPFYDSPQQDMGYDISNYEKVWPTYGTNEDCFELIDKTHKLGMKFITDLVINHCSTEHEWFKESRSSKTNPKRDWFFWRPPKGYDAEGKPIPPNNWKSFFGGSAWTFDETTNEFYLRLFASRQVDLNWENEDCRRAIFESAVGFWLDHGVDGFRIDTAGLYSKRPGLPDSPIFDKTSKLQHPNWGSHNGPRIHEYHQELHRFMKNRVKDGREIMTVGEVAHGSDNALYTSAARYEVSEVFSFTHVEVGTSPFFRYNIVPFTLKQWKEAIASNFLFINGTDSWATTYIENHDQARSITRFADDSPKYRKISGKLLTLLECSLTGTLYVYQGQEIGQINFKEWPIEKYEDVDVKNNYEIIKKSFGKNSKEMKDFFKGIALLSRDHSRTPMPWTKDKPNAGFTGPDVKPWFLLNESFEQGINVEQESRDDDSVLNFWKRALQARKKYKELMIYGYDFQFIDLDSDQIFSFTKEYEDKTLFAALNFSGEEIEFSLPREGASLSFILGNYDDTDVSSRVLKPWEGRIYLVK

Compound | IC50 ([1]; read-out: IC50) | IC50 ([1]; IC50 (μM)) | inhibition at 100 µM [1] | melting point | Inhibition rate at a concentration of 100 μM (%) [1] | Inhibitory activity, folds higher than acarbose [1] | Inhibition mechanism (inhibition type) [2] | Ki [2] | K IS [2] | Reversibility of inhibition [2]
O=C1Cc2cc(F)ccc2N1 [5-Fluoro-2-oxindole, 5-fluoro-2-oxindole] | 7510 µM |  |  |  |  |  |  |  |  | 
O=C1Nc2ccc(F)cc2/C1=C/c1ccccc1F [Compound 3a, (Z)-5-Fluoro-3-(2-Fluorobenzylidene) Indolin-2-One] |  | > 100 µM | 7.29 ± 0.16% | 228.3 to 230.2 °C |  |  |  |  |  | 
O=C1Nc2ccc(F)cc2/C1=C/c1cccc(F)c1 [Compound 3b, (Z)-5-Fluoro-3-(3-Fluorobenzylidene) Indolin-2-One] |  | > 100 µM | 5.19 ± 0.79% | 191.4 to 192.2 °C |  |  |  |  |  | 
O=C1Nc2ccc(F)cc2/C1=C/c1ccc(F)cc1 [Compound 3c, (Z)-5-Fluoro-3-(4-Fluorobenzylidene) Indolin-2-One] |  | > 100 µM | 9.55 ± 0.13% | 217 to 219.6 °C |  |  |  |  |  | 
O=C1Nc2ccc(F)cc2/C1=C/c1ccccc1Cl [Compound 3d, (Z)-3-(2-Chlorobenzylidene)-5-Fluoroindolin-2-One] |  | 49.9 ± 1.16 µM | ~90% | 219.7 to 221.9 °C | 89.19 ± 0.14% | 10 ∼ 15 folds | Mixed type | 15 µM | 453.85 µM | reversible
O=C1Nc2ccc(F)cc2/C1=C/c1cccc(Cl)c1 [Compound 3e, (Z)-3-(3-Chlorobenzylidene)-5-Fluoroindolin-2-One] |  | > 100 µM | 21.6 ± 0.78% | 237.4 to 238.9 °C |  |  |  |  |  | 
O=C1Nc2ccc(F)cc2/C1=C/c1ccc(Cl)cc1 [Compound 3f, (Z)-3-(4-Chlorobenzylidene)-5-Fluoroindolin-2-One] |  | 35.8 ± 0.98 µM | ~90% | 200.6 to 202.5 °C | 90.52 ± 0.27% | 10 ∼ 15 folds | Mixed type | 33.8 µM | 58.31 µM | reversible
O=C1Nc2ccc(F)cc2/C1=C/c1ccccc1Br [Compound 3g, (Z)-3-(2-Bromobenzylidene)-5-Fluoroindolin-2-One] |  | 95.68 ± 0.28 µM | ~50% | 194.9 to 197.1 °C | 53.71 ± 0.47% |  |  |  |  | 
O=C1Nc2ccc(F)cc2/C1=C/c1cccc(Br)c1 [Compound 3h, (Z)-3-(3-Bromobenzylidene)-5-Fluoroindolin-2-One] |  | > 100 µM | 31.61 ± 0.21% | 222.6 to 223.8 °C |  |  |  |  |  | 
O=C1Nc2ccc(F)cc2/C1=C/c1ccc(Br)cc1 [Compound 3i, (Z)-3-(4-Bromobenzylidene)-5-Fluoroindolin-2-One] |  | 56.87 ± 0.42 µM | ~90% | 249.3 to 251.6 °C | 92.86 ± 0.32% | 10 ∼ 15 folds | Mixed type | 22.7 µM | 24.74 µM | reversible
COc1ccccc1/C=C1\C(=O)Nc2ccc(F)cc21 [Compound 3j, (Z)-5-Fluoro-3-(2-Methoxybenzylidene) Indolin-2-One] |  | > 100 µM | 19.2 ± 1.21% | 227.1 to 227.8 °C |  |  |  |  |  | 
COc1cccc(/C=C2\C(=O)Nc3ccc(F)cc32)c1 [Compound 3k, (Z)-5-Fluoro-3-(3-Methoxybenzylidene) Indolin-2-One] |  | > 100 µM | 27.2 ± 1.47% | 200.1 to 202.1 °C |  |  |  |  |  | 
COc1ccc(/C=C2\C(=O)Nc3ccc(F)cc32)cc1 [Compound 3l, (Z)-5-Fluoro-3-(4-Methoxybenzylidene) Indolin-2-One] |  | > 100 µM | 15.7 ± 0.71% | 358.8 to 359.9 °C |  |  |  |  |  | 
O=C1Nc2ccc(F)cc2/C1=C/c1ccccc1C(F)(F)F [Compound 3m, (Z)-5-Fluoro-3-[2-(Trifluoromethyl) Benzylidene) Indolin-2-One] | > 100 µM |  | 8.43 ± 1.14% | 235.2 to 236.4 °C |  |  |  |  |  | 
O=C1Nc2ccc(F)cc2/C1=C/c1cccc(C(F)(F)F)c1 [Compound 3n, (Z)-5-Fluoro-3-[3-(Trifluoromethyl) Benzylidene] Indolin-2-One] |  | 96.78 ± 0.72 µM | ~50% | 199.7 to 200.5 °C | 52.79 ± 1.68% |  |  |  |  | 
O=C1Nc2ccc(F)cc2/C1=C/c1ccc(F)cc1F [Compound 3o, (Z)-3-(2,4-Difluorobenzylidene)-5-Fluoroindolin-2-One] |  | > 100 µM | 18.8 ± 1.15% | 221.1 to 224.3 °C |  |  |  |  |  | 
O=C1Nc2ccc(F)cc2/C1=C/c1ccccc1 [Compound 3q, (Z)-3-Benzylidene-5-Fluoroindolin-2-One] |  | > 100 µM | 10 ± 1.75% |  |  |  |  |  |  | 
CSc1ccc(/C=C2\C(=O)Nc3ccc(F)cc32)cc1 [Compound 3r, (Z)-5-Fluoro-3-[4-(Methylthio) Benzylidene] Indolin-2-One] |  | 90.6 ± 1.87 µM | ~50% | 246.1 to 247.1 °C | 60.8 ± 1.27% |  |  |  |  | 
O=C1Nc2ccc(F)cc2/C1=C/c1ccco1 [Compound 3s, (Z)-5-Fluoro-3-(Furan-2-ylmethylene) Indolin-2-One] |  | > 100 µM | 4.49 ± 1.88% | 237.9 to 238.8 °C |  |  |  |  |  | 
O=C1Nc2ccc(F)cc2/C1=C/c1cccs1 [Compound 3t, (Z)-5-Fluoro-3-(Thiophen-2-ylmethylene) Indolin-2-One] |  | > 100 µM | 5.67 ± 1.11% |  |  |  |  |  |  | 
O=C1Nc2ccc(F)cc2/C1=C/c1ccc[nH]1 [Compound 3u, (Z)-3-[(1H-Pyrrol-2-yl)methylene]-5-Fluoroindolin-2-One] |  | > 100 µM | 3.77 ± 1.35% |  |  |  |  |  |  | 
O=C1Nc2ccc(F)cc2/C1=C/c1ccccn1 [Compound 3v, (Z)-5-Fluoro-3-(Pyridin-2-ylmethylene) Indolin-2-One] |  | > 100 µM | 3.99 ± 1.28% | 248.5 to 251.2 °C |  |  |  |  |  | 
(Z)-3-(3,4-Difluorobenzylidene)-5-Fluoroindolin-2-One [Compound 3p] | 92.62 ± 0.45 µM |  |  |  | 55.89 ± 1.71% |  |  |  |  | 
